Reference: paper PMC5392334, “Discovery and characterization of a novel irreversible EGFR mutants selective and potent kinase inhibitor CHMFL-EGFR-26 with a distinct binding mode” (Oncotarget, 2017)
Like-named read-outs stand apart in the source and are kept apart here.

What was measured:
[1] = target: T1, NLK (Homo sapiens, UniProt Q9UBE8); assay: KinomeScan; assay type: binding; settings: read-out: % control
T1 construct: purchased DiscoveRx KINOMEscan

[2] = target: T2, IKK-alpha (Homo sapiens, UniProt O15111); assay: KinomeScan; assay type: binding; settings: read-out: % control
T2 construct: purchased DiscoveRx KINOMEscan

[3] = target: T3, EGFR(T790M) (Homo sapiens, UniProt P00533, T790M); assay: KinomeScan; assay type: binding; settings: read-out: % control
T3 construct: purchased DiscoveRx KINOMEscan

[4] = target: T4, EGFR(L747-E749del, A750P) (Homo sapiens, UniProt P00533, A750P/DEL747-749); assay: KinomeScan; assay type: binding; settings: read-out: % control
T4 construct: purchased DiscoveRx KINOMEscan

[5] = target: T5, PAK2 (Homo sapiens, UniProt Q13177); assay: KinomeScan; assay type: binding; settings: read-out: % control
T5 construct: purchased DiscoveRx KINOMEscan

[6] = target: T6, FYN (Homo sapiens, UniProt P06241); assay: KinomeScan; assay type: binding; settings: read-out: % control
T6 construct: purchased DiscoveRx KINOMEscan

[7] = target: T7, EPHB6 (Homo sapiens, UniProt O15197); assay: KinomeScan; assay type: binding; settings: read-out: % control
T7 construct: purchased DiscoveRx KINOMEscan

[8] = target: T8, ABL1(H396P)-nonphosphorylated (Homo sapiens, UniProt P00519, H396P); assay: KinomeScan; assay type: binding; settings: read-out: % control
T8 construct: purchased DiscoveRx KINOMEscan

[9] = Pharmacokinetic properties in rats; assay type: in vivo; settings: for MRT last: read-out: MRT(0-t)
Procedure: To further investigate the effect of CHMFL-EGFR-26 in vivo, we first examined its pharmacokinetic properties in rats (Supplementary Table 5). The half-life is 0.8 hour by oral dosing which is short but considering the irreversible binding mode, this short half-life was preferred. […]

[10] = target: T9, CAMK2D (Homo sapiens, UniProt Q13557); assay: KinomeScan; assay type: binding; settings: read-out: % control
T9 construct: purchased DiscoveRx KINOMEscan

[11] = target: T10, ERK4 (Homo sapiens, UniProt P31152); assay: KinomeScan; assay type: binding; settings: read-out: % control
T10 construct: purchased DiscoveRx KINOMEscan

[12] = target: T11, YSK1 (Homo sapiens, UniProt O00506); assay: KinomeScan; assay type: binding; settings: read-out: % control
T11 construct: purchased DiscoveRx KINOMEscan

[13] = target: T12, CSNK1E (Homo sapiens, UniProt P49674); assay: KinomeScan; assay type: binding; settings: read-out: % control
T12 construct: purchased DiscoveRx KINOMEscan

[14] = target: T13, TLK2 (Homo sapiens, UniProt Q86UE8); assay: KinomeScan; assay type: binding; settings: read-out: % control
T13 construct: purchased DiscoveRx KINOMEscan

[15] = target: T14, BRSK2 (Homo sapiens, UniProt Q8IWQ3); assay: KinomeScan; assay type: binding; settings: read-out: % control
T14 construct: purchased DiscoveRx KINOMEscan

[16] = target: T15, JAK2(JH1domain-catalytic) (Homo sapiens, UniProt O60674); assay: KinomeScan; assay type: binding; settings: read-out: % control
T15 construct: JAK2(JH1domain-catalytic); purchased DiscoveRx KINOMEscan

[17] = target: T16, TSSK1B (Homo sapiens, UniProt Q9BXA7); assay: KinomeScan; assay type: binding; settings: read-out: % control
T16 construct: purchased DiscoveRx KINOMEscan

[18] = target: T17, PIK3CA(H1047Y) (Homo sapiens, UniProt P42336, H1047Y); assay: KinomeScan; assay type: binding; settings: read-out: % control
T17 construct: purchased DiscoveRx KINOMEscan

[19] = target: T18, CDK5 (Homo sapiens, UniProt Q00535); assay: KinomeScan; assay type: binding; settings: read-out: % control
T18 construct: purchased DiscoveRx KINOMEscan

[20] = target: T19, PHKG1 (Homo sapiens, UniProt Q16816); assay: KinomeScan; assay type: binding; settings: read-out: % control
T19 construct: purchased DiscoveRx KINOMEscan

[21] = target: T20, DYRK1B (Homo sapiens, UniProt Q9Y463); assay: KinomeScan; assay type: binding; settings: read-out: % control
T20 construct: purchased DiscoveRx KINOMEscan

[22] = test system: BaF3-TEL-EGFR-C797S; assay: Anti-proliferation, BaF3 isogenic cell lines (CellTiter-Glo); assay type: cell-based; settings: Mus musculus, 72 hours, triplet testing
[23] = target: T21, PIK3CA(E545A) (Homo sapiens, UniProt P42336, E545A); assay: KinomeScan; assay type: binding; settings: read-out: % control
T21 construct: purchased DiscoveRx KINOMEscan

[24] = target: T22, NEK3 (Homo sapiens, UniProt P51956); assay: KinomeScan; assay type: binding; settings: read-out: % control
T22 construct: purchased DiscoveRx KINOMEscan

[25] = target: T23, FAK (Homo sapiens, UniProt Q05397); assay: KinomeScan; assay type: binding; settings: read-out: % control
T23 construct: purchased DiscoveRx KINOMEscan

[26] = test system: CHO; assay: Anti-proliferation, normal cells (CellTiter-Glo); settings: Cricetulus griseus, 72 h
Procedure: Cells were grown in 96-well culture plates (2500-3000/well). For adherent cell lines, compounds of various concentrations were added into the plates after cells were cultured for 12 hours. Cell proliferation was determined after treatment with compounds for 72 hours. Cell viability was measured using the CellTiter–Glo assay (Promega, USA) according to the manufacturer's instructions, and luminescence was measured in a multi-label reader (Envision, PerkinElmer, USA). Data were normalized to control groups (DMSO) and represented by the mean of three independent measurements with standard error <20%. GI50 values were calculated using Prism 5.0 (GraphPad Software, San Diego, CA).

[27] = target: T24, MINK (Homo sapiens, UniProt Q8N4C8); assay: KinomeScan; assay type: binding; settings: read-out: % control
T24 construct: purchased DiscoveRx KINOMEscan

[28] = target: T25, KIT(L576P) (Homo sapiens, UniProt P10721, L576P); assay: KinomeScan; assay type: binding; settings: read-out: % control
T25 construct: purchased DiscoveRx KINOMEscan

[29] = target: T26, PCTK2 (Homo sapiens, UniProt Q00537); assay: KinomeScan; assay type: binding; settings: read-out: % control
T26 construct: purchased DiscoveRx KINOMEscan

[30] = target: T27, MST1R (Homo sapiens, UniProt Q04912); assay: KinomeScan; assay type: binding; settings: read-out: % control
T27 construct: purchased DiscoveRx KINOMEscan

[31] = target: T28, ABL1(Y253F)-phosphorylated (Homo sapiens, UniProt P00519, Y253F); assay: KinomeScan; assay type: binding; settings: read-out: % control
T28 construct: purchased DiscoveRx KINOMEscan

[32] = target: T29, EPHA3 (Homo sapiens, UniProt P29320); assay: KinomeScan; assay type: binding; settings: read-out: % control
T29 construct: purchased DiscoveRx KINOMEscan

[33] = test system: FLT3(ITD,D835V); assay: KinomeScan; assay type: binding; settings: 1μM
[34] = target: T30, PIM1 (Homo sapiens, UniProt P11309); assay: KinomeScan; assay type: binding; settings: read-out: % control
T30 construct: purchased DiscoveRx KINOMEscan

[35] = target: T31, p38-delta (Homo sapiens, UniProt O15264); assay: KinomeScan; assay type: binding; settings: read-out: % control
T31 construct: purchased DiscoveRx KINOMEscan

[36] = target: T32, CSF1R (Homo sapiens, UniProt P07333); assay: KinomeScan; assay type: binding; settings: read-out: % control
T32 construct: purchased DiscoveRx KINOMEscan

[37] = target: T33, BLK (Homo sapiens, UniProt P51451); assay: KinomeScan; assay type: binding; settings: read-out: % control
T33 construct: purchased Invitrogen (SelectScreen service)

[38] = rat, in vivo, po, P.O. (10mg/kg)

T29 sequence (P29320 21-983): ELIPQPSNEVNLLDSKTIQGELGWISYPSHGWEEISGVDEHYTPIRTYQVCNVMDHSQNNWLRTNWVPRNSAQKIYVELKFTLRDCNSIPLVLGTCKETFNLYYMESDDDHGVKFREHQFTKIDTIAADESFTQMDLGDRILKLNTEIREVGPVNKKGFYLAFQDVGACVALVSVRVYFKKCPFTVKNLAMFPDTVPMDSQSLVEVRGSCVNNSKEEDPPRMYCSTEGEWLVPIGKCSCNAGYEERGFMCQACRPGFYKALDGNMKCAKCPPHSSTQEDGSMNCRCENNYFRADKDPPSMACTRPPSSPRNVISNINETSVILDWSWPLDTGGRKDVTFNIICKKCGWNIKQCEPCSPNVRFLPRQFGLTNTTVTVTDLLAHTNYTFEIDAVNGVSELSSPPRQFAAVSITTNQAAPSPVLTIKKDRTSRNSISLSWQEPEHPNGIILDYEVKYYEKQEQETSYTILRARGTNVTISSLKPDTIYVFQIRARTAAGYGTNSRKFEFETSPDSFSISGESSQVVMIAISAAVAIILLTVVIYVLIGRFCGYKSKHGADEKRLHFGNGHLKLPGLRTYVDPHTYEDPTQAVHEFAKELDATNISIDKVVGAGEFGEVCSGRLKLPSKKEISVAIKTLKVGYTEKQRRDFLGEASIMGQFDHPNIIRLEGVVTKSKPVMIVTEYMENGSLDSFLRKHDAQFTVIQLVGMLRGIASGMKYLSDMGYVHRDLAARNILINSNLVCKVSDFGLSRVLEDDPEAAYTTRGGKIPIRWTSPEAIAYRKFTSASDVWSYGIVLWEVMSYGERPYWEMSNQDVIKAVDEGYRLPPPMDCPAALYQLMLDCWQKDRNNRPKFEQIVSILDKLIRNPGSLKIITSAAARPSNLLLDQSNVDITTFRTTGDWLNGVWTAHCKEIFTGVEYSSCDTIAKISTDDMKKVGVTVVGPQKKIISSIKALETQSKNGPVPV
T32 sequence (P07333 20-972): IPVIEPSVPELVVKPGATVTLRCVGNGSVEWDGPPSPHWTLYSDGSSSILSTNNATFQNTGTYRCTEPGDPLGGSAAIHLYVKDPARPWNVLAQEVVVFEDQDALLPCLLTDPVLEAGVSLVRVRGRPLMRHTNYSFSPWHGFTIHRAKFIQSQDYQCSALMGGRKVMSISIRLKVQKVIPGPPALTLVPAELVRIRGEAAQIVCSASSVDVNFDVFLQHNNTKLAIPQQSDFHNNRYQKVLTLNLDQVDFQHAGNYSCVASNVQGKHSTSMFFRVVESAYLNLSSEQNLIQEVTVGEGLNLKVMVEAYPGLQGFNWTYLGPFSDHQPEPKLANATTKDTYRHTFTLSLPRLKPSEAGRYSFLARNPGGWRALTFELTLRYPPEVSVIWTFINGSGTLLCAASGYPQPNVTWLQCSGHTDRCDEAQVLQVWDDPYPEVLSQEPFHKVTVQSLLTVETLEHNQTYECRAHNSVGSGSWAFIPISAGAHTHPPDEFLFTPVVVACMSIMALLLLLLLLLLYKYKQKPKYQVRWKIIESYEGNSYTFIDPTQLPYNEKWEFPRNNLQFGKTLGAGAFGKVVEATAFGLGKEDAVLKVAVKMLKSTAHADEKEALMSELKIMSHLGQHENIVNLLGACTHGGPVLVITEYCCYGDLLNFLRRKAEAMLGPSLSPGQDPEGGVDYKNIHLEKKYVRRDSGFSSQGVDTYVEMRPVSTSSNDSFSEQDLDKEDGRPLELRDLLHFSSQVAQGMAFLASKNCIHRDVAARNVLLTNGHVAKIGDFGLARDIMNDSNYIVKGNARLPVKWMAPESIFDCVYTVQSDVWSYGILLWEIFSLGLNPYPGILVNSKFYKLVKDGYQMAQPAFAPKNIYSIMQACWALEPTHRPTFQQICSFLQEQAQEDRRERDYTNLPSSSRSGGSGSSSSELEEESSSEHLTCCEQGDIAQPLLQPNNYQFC
T11 sequence (O00506 whole entry): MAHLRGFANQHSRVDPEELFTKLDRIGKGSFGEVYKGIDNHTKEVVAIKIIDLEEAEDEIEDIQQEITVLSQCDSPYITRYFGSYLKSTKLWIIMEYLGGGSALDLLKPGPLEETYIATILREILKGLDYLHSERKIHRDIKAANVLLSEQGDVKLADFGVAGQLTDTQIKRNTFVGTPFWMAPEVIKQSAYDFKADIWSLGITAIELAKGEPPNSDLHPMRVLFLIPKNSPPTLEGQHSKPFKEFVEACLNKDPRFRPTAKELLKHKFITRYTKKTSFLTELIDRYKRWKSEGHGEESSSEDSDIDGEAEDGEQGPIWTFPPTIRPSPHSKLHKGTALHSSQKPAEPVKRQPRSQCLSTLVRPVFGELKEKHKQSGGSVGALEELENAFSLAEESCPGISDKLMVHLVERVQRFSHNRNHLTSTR
T3 sequence (P00533 25-1210 T790M): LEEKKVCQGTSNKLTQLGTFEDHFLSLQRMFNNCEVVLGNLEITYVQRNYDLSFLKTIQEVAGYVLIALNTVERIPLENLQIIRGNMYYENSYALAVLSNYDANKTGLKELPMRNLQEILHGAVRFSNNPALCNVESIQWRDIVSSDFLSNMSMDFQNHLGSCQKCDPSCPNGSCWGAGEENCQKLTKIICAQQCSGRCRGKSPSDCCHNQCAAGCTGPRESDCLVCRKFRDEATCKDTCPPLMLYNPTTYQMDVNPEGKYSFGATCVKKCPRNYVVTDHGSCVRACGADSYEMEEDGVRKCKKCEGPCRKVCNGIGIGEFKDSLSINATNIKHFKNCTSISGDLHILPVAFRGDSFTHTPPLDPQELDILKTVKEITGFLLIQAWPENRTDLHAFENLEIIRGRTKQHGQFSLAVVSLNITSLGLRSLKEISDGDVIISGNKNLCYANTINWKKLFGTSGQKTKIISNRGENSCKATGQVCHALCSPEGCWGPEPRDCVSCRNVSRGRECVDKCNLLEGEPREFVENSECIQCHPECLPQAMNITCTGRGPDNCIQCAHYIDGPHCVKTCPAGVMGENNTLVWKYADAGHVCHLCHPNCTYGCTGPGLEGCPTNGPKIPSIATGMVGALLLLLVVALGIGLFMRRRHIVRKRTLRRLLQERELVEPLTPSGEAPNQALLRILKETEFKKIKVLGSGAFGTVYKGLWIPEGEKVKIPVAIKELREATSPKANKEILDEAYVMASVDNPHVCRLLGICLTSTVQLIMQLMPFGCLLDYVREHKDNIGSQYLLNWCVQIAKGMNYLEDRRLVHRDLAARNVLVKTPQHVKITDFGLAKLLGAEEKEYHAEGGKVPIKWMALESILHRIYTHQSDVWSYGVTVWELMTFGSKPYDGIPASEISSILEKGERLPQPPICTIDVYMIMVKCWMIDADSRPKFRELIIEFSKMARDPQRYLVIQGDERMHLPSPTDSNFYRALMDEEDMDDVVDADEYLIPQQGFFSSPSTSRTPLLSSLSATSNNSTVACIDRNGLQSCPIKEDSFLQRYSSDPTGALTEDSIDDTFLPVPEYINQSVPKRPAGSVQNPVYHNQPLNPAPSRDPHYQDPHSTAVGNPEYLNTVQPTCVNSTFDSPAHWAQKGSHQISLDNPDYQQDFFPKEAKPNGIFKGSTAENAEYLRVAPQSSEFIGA
T31 sequence (O15264 whole entry): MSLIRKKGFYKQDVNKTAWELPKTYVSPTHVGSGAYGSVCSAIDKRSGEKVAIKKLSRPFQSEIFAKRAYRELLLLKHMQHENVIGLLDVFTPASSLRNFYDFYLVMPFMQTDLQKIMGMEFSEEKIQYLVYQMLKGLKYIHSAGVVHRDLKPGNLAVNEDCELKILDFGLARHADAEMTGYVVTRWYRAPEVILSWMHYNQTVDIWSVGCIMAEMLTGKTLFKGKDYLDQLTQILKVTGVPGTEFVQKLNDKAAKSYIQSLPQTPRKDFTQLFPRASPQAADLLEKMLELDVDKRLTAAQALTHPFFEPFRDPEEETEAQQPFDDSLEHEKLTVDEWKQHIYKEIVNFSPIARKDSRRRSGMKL
T16 sequence (Q9BXA7 whole entry): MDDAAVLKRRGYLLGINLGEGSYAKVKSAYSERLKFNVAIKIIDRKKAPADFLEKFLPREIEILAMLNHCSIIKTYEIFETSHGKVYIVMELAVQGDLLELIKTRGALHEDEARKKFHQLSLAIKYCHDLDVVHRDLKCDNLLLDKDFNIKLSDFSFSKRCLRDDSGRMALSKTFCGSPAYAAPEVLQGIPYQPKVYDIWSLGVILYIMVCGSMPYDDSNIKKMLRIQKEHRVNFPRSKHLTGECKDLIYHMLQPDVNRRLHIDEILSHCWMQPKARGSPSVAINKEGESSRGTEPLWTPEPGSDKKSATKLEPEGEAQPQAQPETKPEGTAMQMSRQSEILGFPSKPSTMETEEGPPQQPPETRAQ
T4 sequence (P00533 with tags, fused parts or gaps DEL747-749/A750P limits assumed): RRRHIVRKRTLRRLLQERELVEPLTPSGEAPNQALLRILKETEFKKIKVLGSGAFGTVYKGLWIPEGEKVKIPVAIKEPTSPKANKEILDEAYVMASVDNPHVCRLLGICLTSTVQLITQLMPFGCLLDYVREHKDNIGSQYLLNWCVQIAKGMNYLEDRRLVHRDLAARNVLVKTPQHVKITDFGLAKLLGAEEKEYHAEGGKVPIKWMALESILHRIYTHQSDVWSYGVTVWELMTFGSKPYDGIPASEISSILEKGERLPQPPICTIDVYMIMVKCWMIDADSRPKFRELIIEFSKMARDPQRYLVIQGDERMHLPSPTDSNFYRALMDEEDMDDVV
T12 sequence (P49674 whole entry): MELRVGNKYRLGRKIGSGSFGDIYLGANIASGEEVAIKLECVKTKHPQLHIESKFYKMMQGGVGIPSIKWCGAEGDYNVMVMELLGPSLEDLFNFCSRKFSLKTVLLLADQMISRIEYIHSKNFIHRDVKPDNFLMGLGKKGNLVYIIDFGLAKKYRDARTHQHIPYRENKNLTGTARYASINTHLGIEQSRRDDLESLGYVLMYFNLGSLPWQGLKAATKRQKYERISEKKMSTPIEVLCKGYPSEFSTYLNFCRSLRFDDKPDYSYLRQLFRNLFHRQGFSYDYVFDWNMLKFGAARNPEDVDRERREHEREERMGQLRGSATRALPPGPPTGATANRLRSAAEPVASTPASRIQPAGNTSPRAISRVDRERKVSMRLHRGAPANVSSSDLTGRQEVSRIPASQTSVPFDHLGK

What does the source list for `C=CC(=O)N1CCC[C@@H](n2nc(-c3ccc(OCc4cccc(C)n4)c(Cl)c3)c3c(N)ncnc32)C1` [CHMFL-EGFR-26]?
remaining binding at 1 µM [1]: 70%; remaining binding at 1 µM [2]: 98%; remaining binding at 1 µM [3]: 0.25%; remaining binding at 1 µM [4]: 10%; remaining binding at 1 µM [5]: 77%; remaining binding at 1 µM [6]: 90%; remaining binding at 1 µM [7]: 82%; remaining binding at 1 µM [8]: 100%; CLz ([9]; P.O. (10mg/kg)): 42.2 ± 7.5 mL/min/kg; Vz ([9]; P.O. (10mg/kg)): 2.62 ± 0.14 L/kg; T1/2 ([9]; P.O. (10mg/kg), 10 mg/kg): 48 min; half-life ([9]; rat, in vivo, iv, 1 mg/kg, I.V (1mg/kg)): 18.6 ± 4.92 min; AUC(0-inf) ([9]; rat, in vivo, iv, I.V (1mg/kg)): 1190 ± 143 ng·h/mL; AUC(0-t) ([9]; rat, in vivo, iv, I.V (1mg/kg)): 1190 ± 142 ng·h/mL; Cmax ([9]; rat, in vivo, iv, I.V (1mg/kg)): 10600 ± 1650 ng/mL; Tmax ([9]; rat, in vivo, iv, I.V (1mg/kg)): 1.02 min; clearance ([9]; rat, in vivo, iv, I.V (1mg/kg), read-out: CLz (converted)): 14.2 mL/min/kg; MRT last ([9]; rat, in vivo, iv, I.V (1mg/kg)): 10.8 ± 2.1 min; Vd ([9]; rat, in vivo, iv, I.V (1mg/kg), read-out: Vz): 0.38 ± 0.13 L/kg; half-life ([9]; rat, in vivo, po, 10 mg/kg, P.O. (10mg/kg)): 44.4 ± 9 min; AUC(0-inf) [9, 38]: 4040 ± 717 ng·h/mL; AUC(0-t) [9, 38]: 4040 ± 716 ng·h/mL; Cmax [9, 38]: 5210 ± 859 ng/mL; Tmax [9, 38]: 19.8 ± 8.4 min; bioavailability ([9]; rat, in vivo, po, P.O. (10mg/kg), read-out: F% (bioavailability)): 33.8%; MRT last [9, 38]: 43.2 ± 4.14 min; remaining binding at 1 µM [10]: 91%; remaining binding at 1 µM [11]: 83%; remaining binding at 1 µM [12]: 20%; remaining binding at 1 µM [13]: 9.1%; remaining binding at 1 µM [14]: 80%; remaining binding at 1 µM [15]: 97%; remaining binding at 1 µM [16]: 95%; remaining binding at 1 µM [17]: 89%; remaining binding at 1 µM [18]: 100%; remaining binding at 1 µM [19]: 100%; remaining binding at 1 µM [20]: 100%; remaining binding at 1 µM [21]: 85%; GI50 [22]: 2.5 µM; remaining binding at 1 µM [23]: 100%; remaining binding at 1 µM [24]: 83%; remaining binding at 1 µM [25]: 90%; GI50 [26]: > 10 µM; remaining binding at 1 µM [27]: 29%; remaining binding at 1 µM [28]: 91%; remaining binding at 1 µM [29]: 89%; remaining binding at 1 µM [30]: 100%; remaining binding at 1 µM [31]: 100%; remaining binding at 1 µM [32]: 89%; % control [33]: 99%; remaining binding at 1 µM [34]: 97%; remaining binding at 1 µM [35]: 83%; remaining binding at 1 µM [36]: 98%; remaining binding at 1 µM [37]: 0.35%
